Reference: patent US12581252B2, “Substituted pyrrolo[3,4-b]pyridines as PI3K-α inhibitors” (Relay Therapeutics, Inc., priority 2020, dated 2026)

Molecular target: H1047R PIK3CA enzyme (Homo sapiens, UniProt P42336, H1047R)
Assay: ADP-Glo Biochemical PIK3CA Kinase Assay

H1047R PIK3CA enzyme, sequence (P42336 whole entry H1047R): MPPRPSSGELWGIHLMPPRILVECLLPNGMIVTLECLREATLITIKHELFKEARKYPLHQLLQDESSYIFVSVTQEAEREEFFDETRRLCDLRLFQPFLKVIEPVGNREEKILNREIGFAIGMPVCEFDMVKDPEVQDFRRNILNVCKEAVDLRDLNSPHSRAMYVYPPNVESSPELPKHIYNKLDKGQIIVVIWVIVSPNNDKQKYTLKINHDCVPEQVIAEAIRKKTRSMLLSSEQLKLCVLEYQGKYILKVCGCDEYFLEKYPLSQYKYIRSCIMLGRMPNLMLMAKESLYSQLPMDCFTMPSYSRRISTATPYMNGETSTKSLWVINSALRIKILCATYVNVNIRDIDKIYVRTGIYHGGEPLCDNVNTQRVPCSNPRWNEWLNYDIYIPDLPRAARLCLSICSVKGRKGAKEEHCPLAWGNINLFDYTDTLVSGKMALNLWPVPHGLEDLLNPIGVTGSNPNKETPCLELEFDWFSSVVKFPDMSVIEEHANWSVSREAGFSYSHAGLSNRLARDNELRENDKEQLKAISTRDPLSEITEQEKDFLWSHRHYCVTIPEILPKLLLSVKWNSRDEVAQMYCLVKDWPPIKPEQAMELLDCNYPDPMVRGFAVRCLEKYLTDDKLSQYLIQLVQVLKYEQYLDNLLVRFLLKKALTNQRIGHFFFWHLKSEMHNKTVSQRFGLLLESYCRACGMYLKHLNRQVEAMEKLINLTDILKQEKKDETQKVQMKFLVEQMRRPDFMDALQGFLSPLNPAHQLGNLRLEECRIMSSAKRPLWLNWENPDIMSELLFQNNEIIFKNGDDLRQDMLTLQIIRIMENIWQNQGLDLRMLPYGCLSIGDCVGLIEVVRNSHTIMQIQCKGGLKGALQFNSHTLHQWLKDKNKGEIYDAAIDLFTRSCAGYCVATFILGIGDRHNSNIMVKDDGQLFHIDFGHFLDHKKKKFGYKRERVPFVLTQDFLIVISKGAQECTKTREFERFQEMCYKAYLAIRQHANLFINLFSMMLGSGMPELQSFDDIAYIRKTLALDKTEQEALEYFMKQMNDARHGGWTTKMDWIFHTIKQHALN
H1047R PIK3CA enzyme, sequence (P27986 whole entry partner): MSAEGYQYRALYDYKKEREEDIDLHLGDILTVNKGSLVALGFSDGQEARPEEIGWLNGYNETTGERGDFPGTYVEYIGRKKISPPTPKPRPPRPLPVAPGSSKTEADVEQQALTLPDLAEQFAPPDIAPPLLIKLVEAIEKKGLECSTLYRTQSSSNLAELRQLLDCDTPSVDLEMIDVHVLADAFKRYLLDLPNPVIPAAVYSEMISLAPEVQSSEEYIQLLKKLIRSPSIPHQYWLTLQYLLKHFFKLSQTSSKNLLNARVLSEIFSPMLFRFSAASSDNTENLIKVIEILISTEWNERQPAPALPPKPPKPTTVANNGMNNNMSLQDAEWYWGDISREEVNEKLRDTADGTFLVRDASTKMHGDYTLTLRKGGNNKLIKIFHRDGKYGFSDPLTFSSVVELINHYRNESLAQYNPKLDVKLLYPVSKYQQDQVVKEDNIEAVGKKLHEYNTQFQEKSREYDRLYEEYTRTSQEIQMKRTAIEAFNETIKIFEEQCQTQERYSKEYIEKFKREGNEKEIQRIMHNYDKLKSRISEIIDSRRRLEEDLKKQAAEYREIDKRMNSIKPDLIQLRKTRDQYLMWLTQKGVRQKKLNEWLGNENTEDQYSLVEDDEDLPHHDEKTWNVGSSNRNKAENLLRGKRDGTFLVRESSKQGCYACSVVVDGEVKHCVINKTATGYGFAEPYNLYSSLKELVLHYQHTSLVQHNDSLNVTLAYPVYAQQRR

IC50 [nM] | SMILES
1000 to 10000 | CC[C@@H](CC(=O)Nc1cccc2c1[C@H](c1cc(F)ccc1Cl)NC2=O)[C@H](C)C(F)(F)F (single isomer, unassigned) [Compound I-2336]
≤ 100 | O=C(Nc1cc(Br)cc2c1C(c1cc(Cl)cc(F)c1F)NC2=O)c1cc(F)cc(C(F)(F)F)c1 (centres unmarked) [Compound I-785]
≤ 100 | CS(=O)(Cc1cc(NC(=O)c2cc(F)cc(C(F)(F)F)c2)c2c(c1)C(=O)NC2c1cc(F)ccc1Cl)=Nc1cccnc1 (centres unmarked) [Compound I-1486]
10000 to 100000 | CN1C(=O)CC[C@@H]1COc1cc(NC(=O)c2cc(F)cc(C(F)(F)F)c2)c2c(c1)C(=O)N[C@@H]2c1cc(F)ccc1Cl (single isomer, unassigned) [Compound I-1569]
1000 to 10000 | Cc1ccccc1[C@H]1NC(=O)c2cc(N)cc(NC(=O)c3cc(F)cc(C(F)(F)F)c3)c21 [Compound I-65]
≤ 100 | Nc1nc2ccc(-c3cc(NC(=O)c4cc(F)cc(C(F)(F)F)c4)c4c(c3)C(=O)NC4c3cc(F)ccc3Cl)cn2n1 (centres unmarked) [Compound I-1368]
≤ 100 | CC(=O)Cc1cc(NC(=O)c2cc(F)cc(C(F)(F)F)c2)c2c(c1)C(=O)N[C@@H]2c1cc(F)ccc1Cl [Compound I-623]
10000 to 100000 | Cc1ccccc1C1NC(=O)c2nccc(NC(=O)N3CCc4ncccc43)c21 (centres unmarked) [Compound I-199]
10000 to 100000 | O=C1NC(c2cc(F)ccc2Cl)c2c(NC(=O)N3CCC(O)C3)cc(-c3ccc4ncnn4c3)cc21 (centres unmarked) [Compound I-1718]
1000 to 10000 | O=C(Nc1cc(Br)cc2c1C(c1cc(F)ccc1Cl)NC2=O)c1cc(Cl)ccc1C(F)F (centres unmarked) [Compound I-911]
1000 to 10000 | O=C(Nc1cccc2c1C(c1cc(F)ccc1Cl)NC2=O)Nc1n[nH]c2ccccc12 (centres unmarked) [Compound I-2382]
10000 to 100000 | CC1(Cc2cc(NC(=O)N3C[C@@](O)(C(F)(F)F)c4cc(F)ccc43)c3c(c2)C(=O)N[C@H]3c2cc(F)ccc2Cl)COC1 (single isomer, unassigned) [Compound I-2660]
≤ 100 | CCCNc1cc(NC(=O)c2cc(F)cc(C(F)(F)F)c2)c2c(n1)C(=O)NC2c1cc(F)ccc1Cl (centres unmarked) [Compound I-319]
1000 to 10000 | CC(=O)Nc1cc(NC(=O)c2cc(F)cc(C(F)(F)F)c2)c2c(c1)C(=O)N[C@@H]2c1cc(F)ccc1Cl [Compound I-462]
≤ 100 | CS(=O)(=O)n1cc(-c2cc(NC(=O)c3cc(F)cc(C(F)(F)F)c3)c3c(c2)C(=O)NC3c2cc(F)ccc2Cl)cn1 (centres unmarked) [Compound I-1498]
100 to 500 | N#Cc1ncc(-c2cc(NC(=O)c3cc(F)cc(C(F)(F)F)c3)c3c(c2)C(=O)N[C@H]3c2cc(F)ccc2Cl)cn1 [Compound I-979]
100 to 500 | Cc1ccccc1C1NC(=O)c2cccc(NC(=O)c3cc(F)cc4cc[nH]c34)c21 (centres unmarked) [Compound I-454]
10000 to 100000 | O=C1NC(c2cc(F)ccc2Cl)c2c(OCc3cc(F)cc(C(F)(F)F)c3)cccc21 (centres unmarked) [Compound I-2295]
10000 to 100000 | O=C(Nc1cccc2c1[C@@H](C[C@@H]1CCCCN1)NC2=O)c1cc(F)cc(C(F)(F)F)c1 (single isomer, unassigned) [Compound I-2281]
500 to 1000 | O=C(Nc1cc(-c2cnc3ncnn3c2)cc2c1[C@@H](c1cc(F)ccc1Cl)NC2=O)c1cc(F)cc(C(F)(F)F)c1 [Compound I-1023]
≤ 100 | [2H][C@@]1(c2cc(F)ccc2Cl)NC(=O)c2cc(-c3ccc4ncnn4c3)cc(NC(=O)c3cc(F)cc(C(F)(F)F)c3)c21 (single isomer, unassigned) [Compound I-1601]

IC50 [nM] | SMILES
10000 to 100000 | O=C1NC(c2cc(F)ccc2Cl)c2c(NC(=O)N3CCc4ccccc4C3)cccc21 (centres unmarked) [Compound I-2307]
1000 to 10000 | C[C@@H](c1nn[nH]c1C(=O)Nc1cccc2c1[C@H](c1cc(F)ccc1Cl)NC2=O)C(F)(F)F (single isomer, unassigned) [Compound I-2271]
10000 to 100000 | O=C1NC(c2cc(F)ccc2Cl)c2c(NC(=O)c3cccn4ccnc34)cc(Br)cc21 (centres unmarked) [Compound I-562]
≤ 100 | Cc1ccccc1C1NC(=O)c2c(C#N)ccc(NC(=O)c3csc4ccccc34)c21 (centres unmarked) [Compound I-132, N-(7-Cyano-1-oxo-3-(o-tolyl)isoindolin-4-yl)benzo[b]thiophene-3-carboxamide]
10000 to 100000 | O=C1NC(c2cc(F)ccc2Cl)c2c(NC(=O)N3CC[C@H](F)[C@@H](F)C3)cc(Br)cc21 (mixture of isomers) [Compound I-720]
≤ 100 | O=C(O)COc1ncc(-c2cc(NC(=O)c3cc(F)cc(C(F)(F)F)c3)c3c(c2)C(=O)NC3c2cc(F)ccc2Cl)cn1 (centres unmarked) [Compound I-1390]
≤ 100 | CS(=O)(=O)Cc1cc(NC(=O)c2cc(F)cc(C(F)(F)F)c2)c2c(n1)C(=O)NC2c1cc(F)ccc1Cl (centres unmarked) [Compound I-1644]
10000 to 100000 | O=C(Nc1cccc2c1C(CN1CCCC1)NC2=O)c1cc(F)cc(C(F)(F)F)c1 (centres unmarked) [Compound I-1761]
1000 to 10000 | O=C1N[C@H](c2cc(F)ccc2Cl)c2c(NC(=O)c3csc4ccccc34)cc(Br)cc21 [Compound I-733]
≤ 100 | O=C(Nc1cc(-c2ccc3nccn3c2)cc2c1[C@H](c1cc(F)ccc1Cl)NC2=O)c1cc(F)cc(C(F)(F)F)c1 [Compound I-827]
≤ 100 | O=C(Nc1cc(-c2cn[nH]c2)nc2c1[C@H](c1cc(F)ccc1Cl)NC2=O)c1cc(F)cc(C(F)(F)F)c1 [Compound I-194]
100 to 500 | O=C1NC(c2ccccc2Cl)c2c(NC(=O)c3nsc4ccccc34)cc(-c3cn[nH]c3)nc21 (centres unmarked) [Compound I-94, N-(5-(2-Chlorophenyl)-7-oxo-2-(1H-pyrazol-4-yl)-6,7-dihydro-5H-pyrrolo[3,4-b]pyridin-4-yl)benzo[d]isothiazole-3-carboxamide]
≤ 100 | O=C1NC(c2cc(F)ccc2C(F)F)c2c(NC(=O)c3nsc4ccccc34)cc(Br)cc21 (centres unmarked) [Compound I-612]
10000 to 100000 | O=C1NC(c2cc(F)ccc2Cl)c2c(Cn3ccc4ccccc4c3=O)cc(-c3ccc4ncnn4c3)cc21 (centres unmarked) [Compound I-2026]
≤ 100 | O=C(Nc1cc(-c2ccc3nc(C4CC4)nn3c2)cc2c1C(c1cc(F)ccc1Cl)NC2=O)c1cc(F)cc(C(F)(F)F)c1 (centres unmarked) [Compound I-1624]
≤ 100 | O=C(Nc1cc(N2CCC(F)(F)C2)nc2c1C(c1cc(F)ccc1Cl)NC2=O)c1cc(F)cc(C(F)(F)F)c1 (centres unmarked) [Compound I-357]
1000 to 10000 | N#CCc1cc(NC(=O)N2C[C@@](O)(C(F)(F)F)c3ccccc32)c2c(c1)C(=O)N[C@@H]2c1cc(F)ccc1Cl (single isomer, unassigned) [Compound I-2603]
10000 to 100000 | Cn1cc(-c2cc(NC(=O)c3cc(F)cc(C(F)(F)F)c3)c3c(c2)C(=O)N[C@@H]3c2cc(F)ccc2Cl)c(C#N)n1 [Compound I-1737]
1000 to 10000 | O=C(Nc1cc(Nc2cn[nH]c2)cc2c1[C@@H](c1cc(F)ccc1Cl)NC2=O)c1cc(F)cc(C(F)(F)F)c1 [Compound I-1259]
≤ 100 | CC(=O)Nc1cc(NC(=O)c2cc(F)cc(C(F)(F)F)c2)c2c(c1)C(=O)N[C@H]2c1cc(F)ccc1Cl [Compound I-461]
100 to 500 | C[C@]1(O)C[C@@H](Nc2cc(NC(=O)c3cc(F)cc(C(F)(F)F)c3)c3c(n2)C(=O)NC3c2cc(F)ccc2Cl)C1 (single isomer, unassigned) [Compound I-329]

IC50 [nM] | SMILES
≤ 100 | Cn1cc(-c2cc(NC(=O)c3cc(F)cc(C(F)(F)F)c3)c3c(c2)C(=O)NC3c2cc(F)ccc2Cl)nn1 (centres unmarked) [Compound I-879]
≤ 100 | O=C(Nc1cc(-c2cnc(C(F)(F)F)s2)nc2c1C(c1cc(F)ccc1Cl)NC2=O)c1cc(F)cc(Cl)c1 (centres unmarked) [Compound I-496]
500 to 1000 | O=C1NC(c2c(F)cccc2Cl)c2c(NC(=O)c3nsc4ccccc34)cccc21 (centres unmarked) [Compound I-99]
10000 to 100000 | O=C1N[C@H](c2cc(F)ccc2Cl)c2c(NC(=O)[C@@H]3CCCCN3)cc(-c3ccc4ncnn4c3)cc21 [Compound I-2146]
≤ 100 | N#Cc1cn(Cc2cc(NC(=O)c3cc(F)cc(C(F)(F)F)c3)c3c(c2)C(=O)NC3c2cc(F)ccc2Cl)cn1 (centres unmarked) [Compound I-1719]
1000 to 10000 | O=C(Nc1ccnc2c1C(c1cccc(F)c1F)NC2=O)c1cc(F)cc(C(F)(F)F)c1 (centres unmarked) [Compound I-174]
1000 to 10000 | O=C(Nc1ccnc2c1C(c1ccccc1Cl)NC2=O)c1cc(F)cc(Cl)c1 (centres unmarked) [Compound I-171]
≤ 100 | CN1CC[C@H](Nc2cc(NC(=O)c3cc(F)cc(C(F)(F)F)c3)c3c(c2)C(=O)NC3c2cc(F)ccc2Cl)C1 (some centres unmarked) [Compound I-311]
1000 to 10000 | O=C(Nc1cc(-c2ccnc(C(F)F)c2)cc2c1[C@@H](c1cc(F)ccc1Cl)NC2=O)c1cc(F)cc(C(F)(F)F)c1 [Compound I-2002]
10000 to 100000 | O=C1NC(c2cc(F)ccc2Cl)c2c(COc3ccccc3)cc(-c3ccc4ncnn4c3)cc21 (centres unmarked) [Compound I-2017]
1000 to 10000 | Cc1ccc(F)cc1[C@H]1NC(=O)c2cc(Br)cc(NC(=O)c3cc(F)cc(C(F)(F)F)c3)c21 [Compound I-757]
1000 to 10000 | O=C(Nc1cc(Br)cc2c1C(c1cc(F)ccc1Cl)NC2=O)c1cc(C(F)(F)F)cc(F)c1F (centres unmarked) [Compound I-908]
10000 to 100000 | O=C1NC(c2cc(F)ccc2Cl)c2c(NC(=O)C3CCCC3)cc(-c3ccc4ncnn4c3)cc21 (centres unmarked) [Compound I-1782]
≤ 100 | CS(=O)(Cc1cc(NC(=O)c2cc(F)cc(C(F)(F)F)c2)c2c(c1)C(=O)NC2c1cc(F)ccc1Cl)=Nc1ccccc1 (centres unmarked) [Compound I-1435]
1000 to 10000 | COc1ccccc1C1NC(=O)c2cccc(NC(=O)c3csc4ccccc34)c21 (centres unmarked) [Compound I-18]
1000 to 10000 | O=C(Nc1cccc2c1[C@H](C1CCCCC1)NC2=O)c1cc(F)cc(C(F)(F)F)c1 [Compound I-2052]
≤ 100 | O=C(Nc1cc(OCC2(CO)COC2)cc2c1C(c1cc(F)ccc1Cl)NC2=O)c1cc(F)cc(C(F)(F)F)c1 (centres unmarked) [Compound I-1357]
1000 to 10000 | O=C1N[C@H](c2cc(F)ccc2Cl)c2c(NC(=O)[C@H]3C[C@H](O)C[C@@H](C(F)(F)F)C3)cc(Br)cc21 (single isomer, unassigned) [Compound I-2150]
10000 to 100000 | O=C1NC(c2cc(F)ccc2Cl)c2c(NC(=O)C3CCCC3C(F)F)cc(Br)cc21 (centres unmarked) [Compound I-1621]

SMILES | IC50 [nM]
N#Cc1c(-c2cc(NC(=O)c3cc(F)cc(Cl)c3)c3c(c2)C(=O)N[C@@H]3c2cc(F)ccc2Cl)ccc2ncnn12 [Compound I-2064] | ≤ 100
